Measurements published in ChEMBL document CHEMBL4477221, “Discovery and Structure-Based Optimization of 2-Ureidothiophene-3-carboxylic Acids as Dual Bacterial RNA Polymerase and Viral Reverse Transcriptase Inhibitors” (J Med Chem, 2016).
Values after ≈ are worked out from the molar mass of the structure shown. Active and inactive are the calls of the source. The calls are words filed in the database; no cut-off is given here.

Columns and labels:
[1] = target: Human immunodeficiency virus type 1 reverse transcriptase (Human immunodeficiency virus 1, UniProt Q72547); test: Inhibition of HIV1 reverse transcriptase using T19-Cy5 labeled 23-mer DNA/T2-TAMRA labeled 63-mer DNA as primer/template assessed as inhibition of dNTP incorporation into primer/template
[2] = target: Human immunodeficiency virus type 1 reverse transcriptase (Human immunodeficiency virus 1) (UniProt Q72547); test: Effect on binding orientation of HIV1 Alexa 488-labeled reverse transcriptase to TAMRA-labeled primer/template duplex by FRET assay
[3] = Inhibition of Escherichia coli RNA polymerase
[4] = tested on: Human immunodeficiency virus 1; test: Binding affinity to bodipy-labeled HIV1 reverse transcriptase p66 W24C/K287C double mutant assessed as induction of p66 thumb and finger domain open conformation at 3 uM by fluorescence spectroscopic analysis
[5] = Cytotoxicity against HEK293 cells; format: cell-based; conditions: human, read-out: LD50 (the source's name)
Staphylococcus aureus = test: Antibacterial activity against Staphylococcus aureus; format: functional
[6] = target: Human immunodeficiency virus type 1 reverse transcriptase (Human immunodeficiency virus 1) (UniProt Q72547); test: Inhibition of TAMRA-labeled primer/template duplex binding to HIV1 Alexa 488-labeled reverse transcriptase by FRET assay
[7] = tested on: Human immunodeficiency virus 1; test: Antiviral activity against HIV1 pseudoparticle expressing Gag, Gag-pol, RRE, and vesicular stomatitis virus-G protein assessed as inhibition of pseudoparticles entry into human HeLa cells pretreated for 30 mins followed by pseudoparticle addition measured 24 hrs post infection by luciferase reporter gene assay; format: functional, organism-based
[8] = Cytotoxicity against human HeLa cells infected with HIV1 pseudoparticle expressing Gag, Gag-pol, RRE, and vesicular stomatitis virus-G protein assessed as inhibition of cell viability at 25 uM preincubated with cells for 30 mins followed by pseudoparticle addition measured 24 hrs post infection by MTT assay relative to control; format: cell-based; conditions: read-out: INH
[9] = target: Human immunodeficiency virus type 1 reverse transcriptase (Human immunodeficiency virus 1) (UniProt Q72547); test: Inhibition of HIV1 reverse transcriptase using T19-Cy5 labeled 23-mer DNA/T2-TAMRA labeled 63-mer DNA as primer/template assessed as inhibition of dNTP incorporation into primer/template at 1 uM relative to control
[10] = target: Human immunodeficiency virus type 1 reverse transcriptase (Human immunodeficiency virus 1) (UniProt Q72547); test: Inhibition of HIV1 reverse transcriptase using T19-Cy5 labeled 23-mer DNA/T2-TAMRA labeled 63-mer DNA as primer/template assessed as inhibition of dNTP incorporation into primer/template at 25 uM relative to control
[11] = Ratio of IC50 for NNRTI resistant HIV1 harboring reverse transcriptase K103N/V179F/Y181C mutant infected in human TZM-bl cells to IC50 for wild type HIV1 NL4-3 infected in human TZM-bl cells; format: functional
[12] = Ratio of IC50 for NNRTI resistant HIV1 harboring reverse transcriptase A98G/K101E/Y181C/G190A mutant infected in human TZM-bl cells to IC50 for wild type HIV1 NL4-3 infected in human TZM-bl cells; format: functional
[13] = tested on: Human immunodeficiency virus 1; test: Antiviral activity against NNRTI resistant HIV1 harboring reverse transcriptase V106I/Y181C/G190A/H221Y mutant assessed as inhibition of viral infection in human TZM-bl cells after 48 hrs by luciferase reporter gene assay; format: functional, organism-based; conditions: Human immunodeficiency virus 1, TZM-bl
[14] = tested on: Human immunodeficiency virus 1; test: Antiviral activity against wild type HIV1 NL4-3; format: functional, organism-based; conditions: Human immunodeficiency virus 1, NL4-3
[15] = Ratio of IC50 for NNRTI resistant HIV1 harboring reverse transcriptase L100I/K103N/H221Y mutant infected in human TZM-bl cells to IC50 for wild type HIV1 NL4-3 infected in human TZM-bl cells; format: functional
[16] = tested on: Human immunodeficiency virus 1; test: Antiviral activity against wild type HIV1 NL4-3 assessed as inhibition of viral infection in human TZM-bl cells after 48 hrs by luciferase reporter gene assay; format: functional, organism-based; conditions: Human immunodeficiency virus 1, NL4-3, TZM-bl
[17] = tested on: Human immunodeficiency virus 1; test: Binding affinity to bodipy-labeled HIV1 reverse transcriptase p66 W24C/K287C double mutant assessed as induction of p66 thumb and finger domain open conformation by measuring increase in bodipy fluorescence at 10 uM by stopped flow kinetic analysis
[18] = target: Human immunodeficiency virus type 1 reverse transcriptase (Human immunodeficiency virus 1) (UniProt Q72547); test: Inhibition of HIV1 reverse transcriptase using T19-Cy5 labeled 23-mer DNA/T2-TAMRA labeled 63-mer DNA as primer/template assessed as inhibition of dNTP incorporation into primer/template at 10 uM relative to control
[19] = Human immunodeficiency virus 1, HeLa, read-out: IC50

Row | Compound | IC50 [1] | Activity [2] | IC50 [3] | Activity [4] | CC50 [5] | MIC (Staphylococcus aureus) | Activity [6] | also measured
1 | Cc1cn([C@H]2C[C@H](N=[N+]=[N-])[C@@H](CO[P@](=O)(O)O[P@](=O)(O)OP(=O)(O)O)O2)c(=O)[nH]c1=O [ZIDOVUDINE TRIPHOSPHATE] | 7 µM | – | – | – | – | – | – | –
2 | COC(=O)Nc1ccc(NC(=O)Nc2sc(-c3ccc(Cl)c(Cl)c3)cc2C(=O)O)cc1 | 0.3 µM | inactive | 19 µM | inactive | 86 µM | 25 µg/mL (≈ 52 µM) | inactive | IC50 [7, 19]: 30 µM; cytotoxicity at 24 h, 25 µM [8]: 6%
3 | CC(=O)Nc1ccc(NC(=O)Nc2sc(-c3ccc(Cl)c(Cl)c3)cc2C(=O)O)cc1 | 0.6 µM | inactive | 27 µM | inactive | – | – | inactive | –
4 | O=C(Nc1ccc(F)cc1)Nc1sc(-c2ccc(Cl)c(Cl)c2)cc1C(=O)O | 0.7 µM | inactive | 14 µM | inactive | 68 µM | 4 µg/mL (≈ 9.41 µM) | inactive | IC50 [7]: Not Active; cytotoxicity at 24 h, 25 µM [8]: 0%
5 | CCN(Cc1ccccc1)C(=O)Nc1scc(-c2ccc(Cl)cc2)c1C(=O)O | – | – | > 100 µM | – | – | – | – | inhibition [9]: 12%
6 | O=C(O)c1cc(-c2ccc(Cl)c(Cl)c2)sc1NC(=O)N(Cc1ccccc1)Cc1ccccc1 | – | – | 7 µM | – | – | – | – | inhibition [10]: 63%
7 | Nc1ccc(NC(=O)Nc2sc(-c3ccc(Cl)c(Cl)c3)cc2C(=O)O)cc1 | – | – | 53 µM | – | – | – | – | inhibition [10]: 64%
8 | Cc1cc(/C=C/C#N)cc(C)c1Nc1ccnc(Nc2ccc(C#N)cc2)n1 [RILPIVIRINE] | – | – | – | – | – | – | – | Ratio IC50 [11]: 2.3; Ratio IC50 [12]: 22; IC50 [13]: 3.5 µM; IC50 [14]: 0.0009 µM; Ratio IC50 [15]: 6.3
9 | COc1ccc(NC(=O)Nc2sc(-c3ccc(Cl)c(Cl)c3)cc2C(=O)O)cc1 | 0.8 µM | inactive | 22 µM | inactive | 80 µM | 8 µg/mL (≈ 18.3 µM) | inactive | IC50 [7, 19]: 35 µM; cytotoxicity at 24 h, 25 µM [8]: 12%
10 | CCN(Cc1ccccc1)C(=O)Nc1scc(-c2ccc(Cl)c(Cl)c2)c1C(=O)O | – | – | 57 µM | – | – | – | – | inhibition [9]: 12%
11 | Cc1cc(C#N)cc(C)c1Oc1nc(Nc2ccc(C#N)cc2)nc(N)c1Br [ETRAVIRINE] | – | – | – | – | – | – | – | Ratio IC50 [11]: 8.8; Ratio IC50 [12]: 15; IC50 [13]: 6 µM; IC50 [14]: 0.005 µM; Ratio IC50 [15]: 6.8
12 | CCN(Cc1ccccc1)C(=O)Nc1sc(-c2ccc(Cl)c(Cl)c2)cc1C(=O)O | 0.9 µM | inactive | 21 µM | inactive | 58 µM | 10 µg/mL (≈ 22.3 µM) | inactive | IC50 [7, 19]: 27 µM; cytotoxicity at 24 h, 25 µM [8]: 23%
13 | CS(=O)(=O)Nc1ccc(NC(=O)Nc2sc(-c3ccc(Cl)c(Cl)c3)cc2C(=O)O)cc1 | 0.1 µM | inactive | 26 µM | inactive | > 100 µM | 39 µg/mL (≈ 77.9 µM) | inactive | IC50 [16]: 5 µM; Ratio IC50 [11]: >4; Ratio IC50 [12]: 3.5; IC50 [13]: 1.5 µM; Ratio IC50 [15]: >4; IC50 [7, 19]: 30 µM; cytotoxicity at 24 h, 25 µM [8]: 0%
14 | O=C(NCc1ccccc1)Nc1sc(-c2ccc(Cl)c(Cl)c2)cc1C(=O)O | – | – | 43 µM | – | – | – | – | inhibition [10]: 64%
15 | O=C(Nc1ccc(NS(=O)(=O)c2ccccc2)cc1)Nc1sc(-c2ccc(Cl)c(Cl)c2)cc1C(=O)O | 0.9 µM | inactive | 8 µM | inactive | 94 µM | 3 µg/mL (≈ 5.33 µM) | inactive | IC50 [16]: 15 µM; Ratio IC50 [11]: >1.5; Ratio IC50 [12]: 1; IC50 [13]: > 1.5 µM; Ratio IC50 [15]: >1.5
16 | CN(C)S(=O)(=O)Nc1ccc(NC(=O)Nc2sc(-c3ccc(Cl)c(Cl)c3)cc2C(=O)O)cc1 | 0.6 µM | inactive | 23 µM | inactive | > 100 µM | 13 µg/mL (≈ 24.6 µM) | inactive | –
17 | CCN(Cc1ccccc1)C(=O)Nc1cc(-c2ccc(Cl)cc2)sc1C(=O)O | – | – | 75 µM | – | – | – | – | inhibition [10]: 12%
18 | O=C(Cn1cncn1)Nc1ccc(NC(=O)Nc2sc(-c3ccc(Cl)c(Cl)c3)cc2C(=O)O)cc1 | 0.8 µM | inactive | 40 µM | inactive | – | – | inactive | –
19 | O=C1Nc2ccc(Cl)cc2[C@@](C#CC2CC2)(C(F)(F)F)O1 [EFAVIRENZ] | – | – | – | – | – | – | – | IC50 [13]: 26 µM
20 | CCN(Cc1ccccc1)C(=O)Nc1sc(-c2ccc(Cl)cc2)cc1C(=O)O | – | – | 54 µM | – | – | – | – | inhibition [9]: 12%
21 | O=C(Nc1ccccc1)Nc1sc(-c2ccc(Cl)c(Cl)c2)cc1C(=O)O | 1.2 µM | inactive | 20 µM | inactive | 61 µM | 6 µg/mL (≈ 14.7 µM) | inactive | IC50 [16]: 5 µM; Ratio IC50 [11]: >4; Activity [17]: inactive; Ratio IC50 [12]: 3; IC50 [13]: 1 µM; Ratio IC50 [15]: >4; IC50 [7, 19]: 20 µM; cytotoxicity at 24 h, 25 µM [8]: 0%
22 | CCN(Cc1ccccc1)C(=O)Nc1c(-c2ccc(Cl)cc2)csc1C(=O)O | – | – | > 200 µM | – | – | – | – | inhibition [18]: 13%
23 | CCN(Cc1ccccc1)C(=O)Nc1c(-c2ccc(Cl)c(Cl)c2)csc1C(=O)O | – | – | 100 µM | – | – | – | – | inhibition [18]: 4%
24 | CCN(Cc1ccccc1)C(=O)Nc1cc(-c2ccc(Cl)c(Cl)c2)sc1C(=O)O | – | – | 22 µM | – | – | – | – | inhibition [10]: 24%
25 | Cc1ccnc2c1NC(=O)c1cccnc1N2C1CC1 [NEVIRAPINE] | – | – | > 200 µM | – | – | – | – | Activity [17]: Active; IC50 [13]: > 200 µM; IC50 [14]: 0.1 µM
